Laboratory results taken from patent US20020198127A1, “Liquid cleaning compositions and their use” (Unilever Home & Personal Care USA, Division of Conopco, Inc., priority 2001, published 2002).

Tested on: protease enzyme
Test: % residual activity (RA) of the protease enzyme in liquid detergent composition after storage at 37° C.
Type: biochemical
Conditions: for Avg. RA (%): 37° C.; for protease stability versus control, in words: Examples 1-3, storage at 37° C. up to 56 days
Description: All catalysts dosed at 0.1% by weight on tope of the composition except complex G. This catalyst was dosed at 0.06 weight %.
In all cases, the pH of the composition was 7.2.
The % residual activity (RA) of the protease enzyme after storage at 37° C. was measured up to 56 days for the compositions of Examples 1-4 alone (controls), for the same compositions with 0.1% by weight of the complex B added and the same compositions with only the free ligand A added on top of the formulation (on a mole equivalent basis of the amount of the ligand in 0.1% by weight of complex B).
In Examples 4-9, 11 and 12, the pH of the composition was 7.2.
In Example 10, the pH of the composition was 8.0.

**Q.** Which “Avg. RA (%)” value (Ex. 1 composition pH 7.2, +0.1% Complex B, day 0) does the source give for `CC(c1ccccn1)(c1ccccn1)N(Cc1ccccn1)Cc1ccccn1.O.O.[Cl-].[Cl-].[Fe+2]` [Complex B, [Fe(MeN4py)Cl]Cl.2H20] here?
**A.** 100.0%

**Q.** And the “Avg. RA (%)” value (Ex. 1 composition pH 7.2, +0.1% Complex B, day 3)?
**A.** 93.7%

**Q.** What about the “Avg. RA (%)” value (Ex. 1 composition pH 7.2, +0.1% Complex B, day 7) of the same compound?
**A.** 84.1%

**Q.** And the “Avg. RA (%)” value (Ex. 1 composition pH 7.2, +0.1% Complex B, day 14)?
**A.** 93.9%

**Q.** And the “Avg. RA (%)” value (Ex. 1 composition pH 7.2, +0.1% Complex B, day 28)?
**A.** 79.0%

**Q.** And the “Avg. RA (%)” value (Ex. 1 composition pH 7.2, +0.1% Complex B, day 56)?
**A.** 71.3%

**Q.** And the “Avg. RA (%)” value (Ex. 2 composition pH 7.2, +0.1% Complex B, day 0)?
**A.** 100.0%

**Q.** What about the “Avg. RA (%)” value (Ex. 2 composition pH 7.2, +0.1% Complex B, day 3) of the same compound?
**A.** 92.2%

**Q.** And the “Avg. RA (%)” value (Ex. 2 composition pH 7.2, +0.1% Complex B, day 7)?
**A.** 87.1%

**Q.** What about the “Avg. RA (%)” value (Ex. 2 composition pH 7.2, +0.1% Complex B, day 14) of the same compound?
**A.** 80.4%

**Q.** And the “Avg. RA (%)” value (Ex. 2 composition pH 7.2, +0.1% Complex B, day 28)?
**A.** 89.7%

**Q.** And the “Avg. RA (%)” value (Ex. 2 composition pH 7.2, +0.1% Complex B, day 56)?
**A.** 75.4%

**Q.** And the “Avg. RA (%)” value (Ex. 3 composition pH 7.2, +0.1% Complex B, day 0)?
**A.** 100.0%

**Q.** What about the “Avg. RA (%)” value (Ex. 3 composition pH 7.2, +0.1% Complex B, day 3) of the same compound?
**A.** 79.0%

**Q.** And the “Avg. RA (%)” value (Ex. 3 composition pH 7.2, +0.1% Complex B, day 7)?
**A.** 74.0%

**Q.** And the “Avg. RA (%)” value (Ex. 3 composition pH 7.2, +0.1% Complex B, day 14)?
**A.** 64.9%

**Q.** And the “Avg. RA (%)” value (Ex. 3 composition pH 7.2, +0.1% Complex B, day 28)?
**A.** 59.8%

**Q.** And the “Avg. RA (%)” value (Ex. 3 composition pH 7.2, +0.1% Complex B, day 56)?
**A.** 48.7%

**Q.** What about the “Avg. RA (%)” value (Example 4 composition (with sorbitol) pH 7.2, +0.1% Complex B, day 0) of the same compound?
**A.** 100.0%

**Q.** And the “Avg. RA (%)” value (Example 4 composition (with sorbitol) pH 7.2, +0.1% Complex B, day 7)?
**A.** 98%

**Q.** What about the “Avg. RA (%)” value (Example 4 composition (with sorbitol) pH 7.2, +0.1% Complex B, day 14) of the same compound?
**A.** 97%

**Q.** What about the “Avg. RA (%)” value (Example 4 composition (with sorbitol) pH 7.2, +0.1% Complex B, day 28) of the same compound?
**A.** 92%

**Q.** What about the “Avg. RA (%)” value (Example 10 composition pH 8.0, +0.1% Complex B, day 0) of the same compound?
**A.** 100.0%

**Q.** What about the “Avg. RA (%)” value (Example 10 composition pH 8.0, +0.1% Complex B, day 3) of the same compound?
**A.** 92%

**Q.** What about the “Avg. RA (%)” value (Example 10 composition pH 8.0, +0.1% Complex B, day 7) of the same compound?
**A.** 91%

**Q.** What about the “Avg. RA (%)” value (Example 10 composition pH 8.0, +0.1% Complex B, day 14) of the same compound?
**A.** 86%

**Q.** And the “Avg. RA (%)” value (Example 10 composition pH 8.0, +0.1% Complex B, day 28)?
**A.** 83%

**Q.** What about the “protease stability versus control, in words” value of the same compound?
**A.** improvement in stability

**Q.** Which “Avg. RA (%)” value (Example 5 composition pH 7.2, +0.1% Complex C, day 0) does the source give for `[Cl-].[Cl-].[Fe+2].c1ccc(CN(Cc2ccccn2)C(c2ccccn2)c2ccccn2)nc1` [Complex C] here?
**A.** 100.0%

**Q.** What about the “Avg. RA (%)” value (Example 5 composition pH 7.2, +0.1% Complex C, day 7) of the same compound?
**A.** 98%

**Q.** What about the “Avg. RA (%)” value (Example 5 composition pH 7.2, +0.1% Complex C, day 14) of the same compound?
**A.** 91%

**Q.** And the “Avg. RA (%)” value (Example 5 composition pH 7.2, +0.1% Complex C, day 28)?
**A.** 78%

**Q.** `F[P-](F)(F)(F)(F)F.[Cl-].[Fe+2].c1ccc(CNCCN(Cc2ccccn2)Cc2ccccn2)nc1` [Complex D, [Fe(trispicenNH)Cl]PF6] was tested. Which “Avg. RA (%)” value (Example 6 composition pH 7.2, +0.1% Complex D, day 0) did it give?
**A.** 100.0%

**Q.** And the “Avg. RA (%)” value (Example 6 composition pH 7.2, +0.1% Complex D, day 7)?
**A.** 100%

**Q.** What about the “Avg. RA (%)” value (Example 6 composition pH 7.2, +0.1% Complex D, day 14) of the same compound?
**A.** 92%

**Q.** What about the “Avg. RA (%)” value (Example 6 composition pH 7.2, +0.1% Complex D, day 28) of the same compound?
**A.** 74%

**Q.** For `CN1CCN(C)CCN(C)CC1.CN1CCN(C)CCN(C)CC1.F[P-](F)(F)(F)(F)F.F[P-](F)(F)(F)(F)F.[Mn+4].[Mn+4].[O-2].[O-2].[O-2]` [Complex E, [Mn2(1,4,7-trimethyl-1,4,7-triazacyclononane)2(μ-O)3] (PF6)2], which “Avg. RA (%)” value (Example 7 composition pH 7.2, +0.1% Complex E, day 0) is on record?
**A.** 100.0%

**Q.** And the “Avg. RA (%)” value (Example 7 composition pH 7.2, +0.1% Complex E, day 7)?
**A.** 93%

**Q.** And the “Avg. RA (%)” value (Example 7 composition pH 7.2, +0.1% Complex E, day 14)?
**A.** 87%

**Q.** And the “Avg. RA (%)” value (Example 7 composition pH 7.2, +0.1% Complex E, day 28)?
**A.** 80%

**Q.** Which results are given for `F[P-](F)(F)(F)(F)F.F[P-](F)(F)(F)(F)F.[Fe+2].c1ccc(CN(CCN(Cc2ccccn2)Cc2ccccn2)Cc2ccccn2)nc1` [Complex G, [Fe(tpen)] (PF6)2]?
**A.** Avg. RA (%) (Example 8 composition pH 7.2, +0.06% Complex G, day 0): 100.0%; Avg. RA (%) (Example 8 composition pH 7.2, +0.06% Complex G, day 7): 97%; Avg. RA (%) (Example 8 composition pH 7.2, +0.06% Complex G, day 14): 89%; Avg. RA (%) (Example 8 composition pH 7.2, +0.06% Complex G, day 28): 77%

**Q.** Which results are given for `COC(=O)C12CN(Cc3ccccn3)CC(C(=O)OC)(C1=O)C(c1ccccn1)N(C)C2c1ccccn1.O.[Cl][Fe][Cl]` (stereo not drawn) [Complex H, Chloro(dimethyl 2,4-di-(2-pyridyl)-3-methyl-7-(pyridin-2-ylmethyl)-3,7-diaza-bicyclo[3.3.1]nonan-9-one-1,5-dicarboxylate)iron(II)-chloride hydrate]?
**A.** Avg. RA (%) (Example 9 composition pH 7.2, +0.1% Complex H, day 0): 100.0%; Avg. RA (%) (Example 9 composition pH 7.2, +0.1% Complex H, day 7): 93%; Avg. RA (%) (Example 9 composition pH 7.2, +0.1% Complex H, day 14): 91%; Avg. RA (%) (Example 9 composition pH 7.2, +0.1% Complex H, day 28): 88%

**Q.** Which results are given for `CN1CCCN2CCN(C)CCCN(CC1)CC2` [Complex I, 5,12-dimethyl-1,5,8,12-tetraazabicyclo[6.6.2] hexadecane]?
**A.** Avg. RA (%) (Example 12 composition pH 7.2, +0.1% Complex I, day 0): 100.0%; Avg. RA (%) (Example 12 composition pH 7.2, +0.1% Complex I, day 7): 84%; Avg. RA (%) (Example 12 composition pH 7.2, +0.1% Complex I, day 14): 78%; Avg. RA (%) (Example 12 composition pH 7.2, +0.1% Complex I, day 28): 67%

**Q.** `CC(c1ccccn1)(c1ccccn1)N(Cc1ccccn1)Cc1ccccn1` [Ligand A, N,N-bis(pyridin-2-yl-methyl)-1,1-bis(pyridin-2-yl)-1-aminoethane] was tested. Which “Avg. RA (%)” value (Ex. 1 composition pH 7.2, +0.1% mole equiv. Ligand A, day 0) did it give?
**A.** 100.0%

**Q.** What about the “Avg. RA (%)” value (Ex. 1 composition pH 7.2, +0.1% mole equiv. Ligand A, day 3) of the same compound?
**A.** 85.0%

**Q.** What about the “Avg. RA (%)” value (Ex. 1 composition pH 7.2, +0.1% mole equiv. Ligand A, day 7) of the same compound?
**A.** 63.9%

**Q.** What about the “Avg. RA (%)” value (Ex. 1 composition pH 7.2, +0.1% mole equiv. Ligand A, day 14) of the same compound?
**A.** 48.8%

**Q.** And the “Avg. RA (%)” value (Ex. 1 composition pH 7.2, +0.1% mole equiv. Ligand A, day 28)?
**A.** 38.0%

**Q.** And the “Avg. RA (%)” value (Ex. 1 composition pH 7.2, +0.1% mole equiv. Ligand A, day 56)?
**A.** 18.4%

**Q.** And the “Avg. RA (%)” value (Ex. 2 composition pH 7.2, +0.1% mole equiv. Ligand A, day 0)?
**A.** 100.0%

**Q.** And the “Avg. RA (%)” value (Ex. 2 composition pH 7.2, +0.1% mole equiv. Ligand A, day 3)?
**A.** 70.7%

**Q.** And the “Avg. RA (%)” value (Ex. 2 composition pH 7.2, +0.1% mole equiv. Ligand A, day 7)?
**A.** 63.1%

**Q.** What about the “Avg. RA (%)” value (Ex. 2 composition pH 7.2, +0.1% mole equiv. Ligand A, day 14) of the same compound?
**A.** 46.9%

**Q.** What about the “Avg. RA (%)” value (Ex. 2 composition pH 7.2, +0.1% mole equiv. Ligand A, day 28) of the same compound?
**A.** 29.3%

**Q.** What about the “Avg. RA (%)” value (Ex. 2 composition pH 7.2, +0.1% mole equiv. Ligand A, day 56) of the same compound?
**A.** 13.0%

**Q.** What about the “Avg. RA (%)” value (Ex. 3 composition pH 7.2, +0.1% mole equiv. Ligand A, day 0) of the same compound?
**A.** 100.0%

**Q.** What about the “Avg. RA (%)” value (Ex. 3 composition pH 7.2, +0.1% mole equiv. Ligand A, day 3) of the same compound?
**A.** 72.0%

**Q.** And the “Avg. RA (%)” value (Ex. 3 composition pH 7.2, +0.1% mole equiv. Ligand A, day 7)?
**A.** 53.0%

**Q.** And the “Avg. RA (%)” value (Ex. 3 composition pH 7.2, +0.1% mole equiv. Ligand A, day 14)?
**A.** 32.3%

**Q.** And the “Avg. RA (%)” value (Ex. 3 composition pH 7.2, +0.1% mole equiv. Ligand A, day 28)?
**A.** 18.6%

**Q.** And the “Avg. RA (%)” value (Ex. 3 composition pH 7.2, +0.1% mole equiv. Ligand A, day 56)?
**A.** 5.2%

**Q.** What about the “protease stability versus control, in words” value of the same compound?
**A.** improvement in stability

**Q.** How did the “Avg. RA (%)” value (Example 11 composition pH 7.2, +0.1% Ligand F, day 0) turn out when `c1ccc(CN(CCN(Cc2ccccn2)Cc2ccccn2)Cc2ccccn2)nc1` [Ligand F, N,N,N′,N′-tetrakis(pyridin-2ylmethyl)ethylenediamine] was run?
**A.** 100.0%

**Q.** And the “Avg. RA (%)” value (Example 11 composition pH 7.2, +0.1% Ligand F, day 7)?
**A.** 85%

**Q.** And the “Avg. RA (%)” value (Example 11 composition pH 7.2, +0.1% Ligand F, day 14)?
**A.** 76%

**Q.** What about the “Avg. RA (%)” value (Example 11 composition pH 7.2, +0.1% Ligand F, day 28) of the same compound?
**A.** 63%
